The values that follow come from ChEMBL document CHEMBL1148941, “A new glucosyl feruloyl quinic acid as a potential marker for roots and rhizomes of goldenseal, Hydrastis canadensis” (2004).

The test system of this assay is Staphylococcus aureus. Kind of assay: Antimicrobial activity against methicillin-resistant Staphylococcus aureus 1126 after 24 hrs. It counts as functional.

SMILES strings stand for the structures.

The compound `COc1cc(/C=C/C(=O)O[C@@H]2C[C@](O)(C(=O)O)C[C@@H](O)[C@H]2O)ccc1O[C@@H]1O[C@H](CO)[C@@H](O)[C@H](O)[C@H]1O` came in with an MIC of over 1000 µg/mL. To `COc1ccc2cc3[n+](cc2c1OC)CCc1cc2c(cc1-3)OCO2.[Cl-]` [BERBERINE CHLORIDE] belongs 60 µg/mL.

One may read the MIC as the lowest concentration found to suppress growth. Read a low MIC as inhibition by little substance.
